Laboratory results as given in patent US7118895B2, “Process for producing aglycon by using diglycosidase and flavor-improved food containing the aglycon and converting agent to be used in the process” (Amano Enzyme Inc., priority 2000, dated 2006).

Test system: Crude diglycosidase
Test: Examination of temperature in the conversion into isoflavone aglycons by diglycosidase using soybean materials
Assay type: biochemical, Penicillium multicolor IAM7153
Design: Decomposition efficiency of glycitin family in roasted soy flour / Decomposition efficiency of daidzin family in roasted soy flour / Decomposition efficiency of genistin family in soymilk / Decomposition efficiency of daidzin family in soymilk / Decomposition efficiency of glycitin family in defatted soybean / Decomposition efficiency of daidzin family in defatted soybean: concentration or dose not given beside the values
Experimental: Into 400 μL of 20 mM acetate buffer of pH 4.0 was suspended 50 mg of each of various soybean materials (roasted soy flour (manufactured by Fuji Shokuryo K.K.), soymilk (manufactured by Gitoh Shokuhin K.K.), defatted soybean (manufactured by Fuji Seiyu K.K.), concentrated soybean protein (manufactured by Fuji Seiyu K.K.)), whereby a substrate solution was prepared. Crude diglycosidase was diluted with 20 mM acetate buffer of pH 4.0 to be the glycosidase activity of 1.88 AU/mL. Fifty μL of the enzyme solution was mixed with the substrate solution and the whole was reacted at 80, 65, 55, 45, 37, or 30° C. at the total volume of 500 μL. To the reaction mixture was added 700 μL of ethanol after 0, 1, 3, and 6 hours of the reaction. After stirring and ultrasonication, the mixture was subjected to centrifugal separation at 15,000 rpm and 4° C. for 10 minutes. The supernatant was filtered through a filter and the existence of isoflavone glycosides and aglycon isoflavones contained in the reaction mixture was detected by HLPC.

[1] = 30° C., heat treatment of enzyme no, reaction time 0 h
[2] = 30° C., heat treatment of enzyme no, reaction time 1 h
[3] = 30° C., heat treatment of enzyme no, reaction time 3 h
[4] = 30° C., heat treatment of enzyme no, reaction time 6 h
[5] = 30° C., heat treatment of enzyme yes, reaction time 6 h
[6] = 30 °C, heat treatment of enzyme: no, 0 h
[7] = 30 °C, heat treatment of enzyme: no, 1 h
[8] = 30 °C, heat treatment of enzyme: no, 3 h
[9] = 30 °C, heat treatment of enzyme: no, 6 h
[10] = 30 °C, heat treatment of enzyme: yes, 6 h
[11] = 45° C., heat treatment of enzyme no, reaction time 0 h
[12] = 45° C., heat treatment of enzyme no, reaction time 1 h
[13] = 45° C., heat treatment of enzyme no, reaction time 3 h
[14] = 45° C., heat treatment of enzyme no, reaction time 6 h
[15] = 45° C., heat treatment of enzyme yes, reaction time 6 h
[16] = 45 °C, heat treatment of enzyme: no, 0 h
[17] = 45 °C, heat treatment of enzyme: no, 1 h
[18] = 45 °C, heat treatment of enzyme: no, 3 h
[19] = 45 °C, heat treatment of enzyme: no, 6 h
[20] = 45 °C, heat treatment of enzyme: yes, 6 h
[21] = 55° C., heat treatment of enzyme no, reaction time 0 h
[22] = 55° C., heat treatment of enzyme no, reaction time 1 h
[23] = 55° C., heat treatment of enzyme no, reaction time 3 h
[24] = 55° C., heat treatment of enzyme no, reaction time 6 h
[25] = 55° C., heat treatment of enzyme yes, reaction time 6 h
[26] = 55 °C, heat treatment of enzyme: no, 0 h
[27] = 55 °C, heat treatment of enzyme: no, 1 h
[28] = 55 °C, heat treatment of enzyme: no, 3 h
[29] = 55 °C, heat treatment of enzyme: no, 6 h
[30] = 55 °C, heat treatment of enzyme: yes, 6 h
[31] = 65° C., heat treatment of enzyme no, reaction time 0 h
[32] = 65° C., heat treatment of enzyme no, reaction time 1 h
[33] = 65° C., heat treatment of enzyme no, reaction time 3 h
[34] = 65° C., heat treatment of enzyme no, reaction time 6 h
[35] = 65° C., heat treatment of enzyme yes, reaction time 6 h
[36] = 65 °C, heat treatment of enzyme: no, 0 h
[37] = 65 °C, heat treatment of enzyme: no, 1 h
[38] = 65 °C, heat treatment of enzyme: no, 3 h
[39] = 65 °C, heat treatment of enzyme: no, 6 h
[40] = 65 °C, heat treatment of enzyme: yes, 6 h
[41] = 80° C., heat treatment of enzyme no, reaction time 0 h
[42] = 80° C., heat treatment of enzyme no, reaction time 1 h
[43] = 80° C., heat treatment of enzyme no, reaction time 3 h
[44] = 80° C., heat treatment of enzyme no, reaction time 6 h
[45] = 80° C., heat treatment of enzyme yes, reaction time 6 h
[46] = 80 °C, heat treatment of enzyme: no, 0 h
[47] = 80 °C, heat treatment of enzyme: no, 1 h
[48] = 80 °C, heat treatment of enzyme: no, 3 h
[49] = 80 °C, heat treatment of enzyme: no, 6 h
[50] = 80 °C, heat treatment of enzyme: yes, 6 h

Decomposition efficiency of genistin family in concentrated soybean protein [1]: 43.1%
Decomposition efficiency of genistin family in defatted soybean [1]: 1.7%
Decomposition efficiency of genistin family in concentrated soybean protein [2]: 43.2%
Decomposition efficiency of genistin family in defatted soybean [2]: 1.3%
Decomposition efficiency of genistin family in concentrated soybean protein [3]: 43.0%
Decomposition efficiency of genistin family in defatted soybean [3]: 0.7%
Decomposition efficiency of genistin family in concentrated soybean protein [4]: 42.5%
Decomposition efficiency of genistin family in defatted soybean [4]: 0.1%
Decomposition efficiency of genistin family in concentrated soybean protein [5]: 41.5%
Decomposition efficiency of genistin family in defatted soybean [5]: 0.4%
Decomposition efficiency of genistin family in roasted soy flour [6]: 45.5%
Decomposition efficiency of genistin family in soymilk [6]: 0.9%
Decomposition efficiency of genistin family in roasted soy flour [7]: 45.3%
Decomposition efficiency of genistin family in soymilk [7]: not detected
Decomposition efficiency of genistin family in roasted soy flour [8]: 43.8%
Decomposition efficiency of genistin family in soymilk [8]: not detected
Decomposition efficiency of genistin family in roasted soy flour [9]: 40.6%
Decomposition efficiency of genistin family in soymilk [9]: not detected
Decomposition efficiency of genistin family in roasted soy flour [10]: 43.8%
Decomposition efficiency of genistin family in soymilk [10]: 0.9%
Decomposition efficiency of genistin family in concentrated soybean protein [11]: 43.0%
Decomposition efficiency of genistin family in defatted soybean [11]: 1.5%
Decomposition efficiency of genistin family in concentrated soybean protein [12]: 42.8%
Decomposition efficiency of genistin family in defatted soybean [12]: 0.8%
Decomposition efficiency of genistin family in concentrated soybean protein [13]: 41.0%
Decomposition efficiency of genistin family in defatted soybean [13]: 0.3%
Decomposition efficiency of genistin family in concentrated soybean protein [14]: 39.6%
Decomposition efficiency of genistin family in defatted soybean [14]: 0.2%
Decomposition efficiency of genistin family in concentrated soybean protein [15]: 38.9%
Decomposition efficiency of genistin family in defatted soybean [15]: 0.2%
Decomposition efficiency of genistin family in roasted soy flour [16]: 45.3%
Decomposition efficiency of genistin family in soymilk [16]: 0.9%
Decomposition efficiency of genistin family in roasted soy flour [17]: 43.6%
Decomposition efficiency of genistin family in soymilk [17]: not detected
Decomposition efficiency of genistin family in roasted soy flour [18]: 38.5%
Decomposition efficiency of genistin family in soymilk [18]: not detected
Decomposition efficiency of genistin family in roasted soy flour [19]: 31.7%
Decomposition efficiency of genistin family in soymilk [19]: not detected
Decomposition efficiency of genistin family in roasted soy flour [20]: 39.5%
Decomposition efficiency of genistin family in soymilk [20]: 0.6%
Decomposition efficiency of genistin family in concentrated soybean protein [21]: 42.9%
Decomposition efficiency of genistin family in defatted soybean [21]: 1.7%
Decomposition efficiency of genistin family in concentrated soybean protein [22]: 43.1%
Decomposition efficiency of genistin family in defatted soybean [22]: 0.7%
Decomposition efficiency of genistin family in concentrated soybean protein [23]: 41.1%
Decomposition efficiency of genistin family in defatted soybean [23]: 0.2%
Decomposition efficiency of genistin family in concentrated soybean protein [24]: 39.0%
Decomposition efficiency of genistin family in defatted soybean [24]: 0.1%
Decomposition efficiency of genistin family in concentrated soybean protein [25]: 41.1%
Decomposition efficiency of genistin family in defatted soybean [25]: 0.4%
Decomposition efficiency of genistin family in roasted soy flour [26]: 45.7%
Decomposition efficiency of genistin family in soymilk [26]: 0.6%
Decomposition efficiency of genistin family in roasted soy flour [27]: 42.5%
Decomposition efficiency of genistin family in soymilk [27]: not detected
Decomposition efficiency of genistin family in roasted soy flour [28]: 34.0%
Decomposition efficiency of genistin family in soymilk [28]: not detected
Decomposition efficiency of genistin family in roasted soy flour [29]: 27.3%
Decomposition efficiency of genistin family in soymilk [29]: not detected
Decomposition efficiency of genistin family in roasted soy flour [30]: 39.9%
Decomposition efficiency of genistin family in soymilk [30]: 0.7%
Decomposition efficiency of genistin family in concentrated soybean protein [31]: 43.1%
Decomposition efficiency of genistin family in defatted soybean [31]: 1.5%
Decomposition efficiency of genistin family in concentrated soybean protein [32]: 45.2%
Decomposition efficiency of genistin family in defatted soybean [32]: 1.2%
Decomposition efficiency of genistin family in concentrated soybean protein [33]: 44.0%
Decomposition efficiency of genistin family in defatted soybean [33]: 1.2%
Decomposition efficiency of genistin family in concentrated soybean protein [34]: 43.4%
Decomposition efficiency of genistin family in defatted soybean [34]: 1.1%
Decomposition efficiency of genistin family in concentrated soybean protein [35]: 42.3%
Decomposition efficiency of genistin family in defatted soybean [35]: 1.3%
Decomposition efficiency of genistin family in roasted soy flour [36]: 45.5%
Decomposition efficiency of genistin family in soymilk [36]: 0.9%
Decomposition efficiency of genistin family in roasted soy flour [37]: 43.6%
Decomposition efficiency of genistin family in soymilk [37]: not detected
Decomposition efficiency of genistin family in roasted soy flour [38]: 40.5%
Decomposition efficiency of genistin family in soymilk [38]: not detected
Decomposition efficiency of genistin family in roasted soy flour [39]: 38.8%
Decomposition efficiency of genistin family in soymilk [39]: not detected
Decomposition efficiency of genistin family in roasted soy flour [40]: 44.3%
Decomposition efficiency of genistin family in soymilk [40]: 1.1%
Decomposition efficiency of genistin family in concentrated soybean protein [41]: 43.0%
Decomposition efficiency of genistin family in defatted soybean [41]: 1.5%
Decomposition efficiency of genistin family in concentrated soybean protein [42]: 44.0%
Decomposition efficiency of genistin family in defatted soybean [42]: 1.8%
Decomposition efficiency of genistin family in concentrated soybean protein [43]: 43.6%
Decomposition efficiency of genistin family in defatted soybean [43]: 2.1%
Decomposition efficiency of genistin family in concentrated soybean protein [44]: 43.4%
Decomposition efficiency of genistin family in defatted soybean [44]: 2.5%
Decomposition efficiency of genistin family in concentrated soybean protein [45]: 41.4%
Decomposition efficiency of genistin family in defatted soybean [45]: 2.4%
Decomposition efficiency of genistin family in roasted soy flour [46]: 45.3%
Decomposition efficiency of genistin family in soymilk [46]: 0.9%
Decomposition efficiency of genistin family in roasted soy flour [47]: 48.5%
Decomposition efficiency of genistin family in soymilk [47]: 0.9%
Decomposition efficiency of genistin family in roasted soy flour [48]: 48.2%
Decomposition efficiency of genistin family in soymilk [48]: 1.0%
Decomposition efficiency of genistin family in roasted soy flour [49]: 47.7%
Decomposition efficiency of genistin family in soymilk [49]: 2.3%
Decomposition efficiency of genistin family in roasted soy flour [50]: 43.4%
Decomposition efficiency of genistin family in soymilk [50]: 2.5%
SMILES: CC(=O)OC[C@H]1O[C@@H](Oc2cc(O)c3c(=O)c(-c4ccc(O)cc4)coc3c2)[C@H](O)[C@@H](O)[C@@H]1O [acetylgenistin, 6″-O-acetylgenistin]
